Data taken from PubChem BioAssay AID248 (DTP/NCI, 2004).
“And” between values parts separate entries of the source, which are not always exact repeats. Equal entries are not always repeated. Toxic doses and inconclusive results are not listed. Cut-off read from the data, not from the text of the source: active = T/C of 150% or more; inactive = T/C below 125%.

System: L1210 leukemia ip in BDF1 mice, survival T/C
Assay: NCI In Vivo Anticancer Drug Screen. Data for tumor model L1210 Leukemia (intraperitoneal) in B6D2F1 (BDF1) mice
Details: endpoint: mean survival time, higher = longer survival
Summary of the method: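 Each compound was tested against a transplantable tumor grown in mice. The endpoint was survival, with treated animals benchmarked against vehicle controls as a simple ratio.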

[1] = dose: 25.0 mg/kg/injection, schedule: Q01DX009 (ip), vehicle: saline with Tween-80
[2] = dose: 25.0 mg/kg/injection, schedule: Q04DX003 (ip), vehicle: saline with Tween-80
[3] = dose: 100.0 mg/kg/injection, schedule: Q04DX003 (ip), vehicle: saline with Tween-80
[4] = dose: 200.0 mg/kg/injection, schedule: Q04DX003 (ip), vehicle: saline with Tween-80
[5] = dose: 400.0 mg/kg/injection, schedule: Q04DX003 (ip), vehicle: saline with Tween-80
[6] = dose: 100.0 mg/kg/injection, schedule: Q04DX003 (ip), vehicle: Klucel (hydroxypropylcellulose) (HPC)
[7] = dose: 12.5 mg/kg/injection, schedule: Q01DX009 (ip), vehicle: Klucel (hydroxypropylcellulose) (HPC)
[8] = dose: 25.0 mg/kg/injection, schedule: Q01DX009 (ip), vehicle: Klucel (hydroxypropylcellulose) (HPC)
[9] = dose: 50.0 mg/kg/injection, schedule: Q01DX009 (ip), vehicle: Klucel (hydroxypropylcellulose) (HPC)
[10] = dose: 100.0 mg/kg/injection, schedule: Q01DX009 (ip), vehicle: Klucel (hydroxypropylcellulose) (HPC)
[11] = dose: 200.0 mg/kg/injection, schedule: Q01DX009 (ip), vehicle: Klucel (hydroxypropylcellulose) (HPC)
[12] = dose: 400.0 mg/kg/injection, schedule: Q01DX009 (ip), vehicle: Klucel (hydroxypropylcellulose) (HPC)
[13] = dose: 50.0 mg/kg/injection, schedule: Q01DX009 (ip), vehicle: saline with Tween-80
[14] = dose: 100.0 mg/kg/injection, schedule: Q04DX002 (ip), vehicle: saline with Tween-80
[15] = dose: 100.0 mg/kg/injection, schedule: Q01DX009 (ip), vehicle: saline with Tween-80
[16] = dose: 100.0 mg/kg/injection, schedule: Q04DX003 (ip), vehicle: saline
[17] = dose: 200.0 mg/kg/injection, schedule: Q01DX009 (ip), vehicle: saline with Tween-80
[18] = dose: 200.0 mg/kg/injection, schedule: Q04DX003 (ip), vehicle: saline
[19] = dose: 400.0 mg/kg/injection, schedule: Q04DX003 (ip), vehicle: saline

Measured: T/C

CCCOC(C[N+](=O)[O-])C(Cl)(Cl)Cl (stereo not given)
inactive: dose: 6.25 mg/kg/injection, schedule: Q01DX009 (ip), vehicle: saline with Tween-80 91 % of control | dose: 12.5 mg/kg/injection, schedule: Q01DX009 (ip), vehicle: saline with Tween-80 96 % of control | [1] 101 % of control | [2] 104 % of control

CCN(C(=O)c1ccc(C(=O)N(CC)c2ccccc2)cc1)c1ccccc1
inactive: [3] 96 % of control | [4] 91 % of control | [5] 91 % of control

O=C(OCC(Cl)(Cl)Cl)OCC(Cl)(Cl)Cl
inactive: [6] 98 % of control | dose: 200.0 mg/kg/injection, schedule: Q04DX003 (ip), vehicle: Klucel (hydroxypropylcellulose) (HPC) 98 % of control

CC(Cc1ccccc1)NCCc1c2ccccc2nc2ccccc12 (stereo not given)
inactive: [7] 101 % of control | [8] 102 % of control | [9] 98 % of control | [10] 104 % of control | [11] 91 % of control

CC1(C)NC(=O)N(Cc2ccccc2)C1=O
inactive: [10] 94 % of control | [3] 98 % of control | [11] 97 % of control | [4] 110 % of control | [12] 100 % of control | [5] 105 % of control

NNCCO
inactive: [1] 97 % of control | dose: 25.0 mg/kg/injection, schedule: Q04DX002 (ip), vehicle: saline with Tween-80 94 % of control | [13] 106 % of control | dose: 50.0 mg/kg/injection, schedule: Q04DX002 (ip), vehicle: saline with Tween-80 105 % of control | [14] 106 % of control

O=C(OCCO)c1ccccc1
inactive: [15] 97 % of control | [16] 106 % of control | [17] 97 % of control | [18] 95 % of control | dose: 400.0 mg/kg/injection, schedule: Q01DX009 (ip), vehicle: saline with Tween-80 95 % of control | [19] 97 % of control

CCC(C)n1ncc2c(N(C)C)ncnc21 (stereo not given)
inactive: dose: 50.0 mg/kg/injection, schedule: Q01DX009 (ip), vehicle: saline 103 % of control | dose: 50.0 mg/kg/injection, schedule: Q04DX003 (ip), vehicle: saline 105 % of control | dose: 100.0 mg/kg/injection, schedule: Q01DX001 (ip), vehicle: saline 98 % of control | dose: 100.0 mg/kg/injection, schedule: Q01DX009 (ip), vehicle: saline 115 % of control | [16] 105 % of control | dose: 200.0 mg/kg/injection, schedule: Q01DX001 (ip), vehicle: saline 102 % of control | [18] 107 % of control

N#Cc1c(/N=C/c2cc(Cl)cc(Cl)c2O)sc2c1CCC2
inactive: [14] 95 % of control | dose: 200.0 mg/kg/injection, schedule: Q04DX002 (ip), vehicle: saline with Tween-80 113 % of control | dose: 400.0 mg/kg/injection, schedule: Q04DX002 (ip), vehicle: saline with Tween-80 91 % of control

CC(C)OC1=CC2C(=CCC3C2(C)C(=O)CC2(C)C(C(C)(O)C(=O)/C=C/C(C)(C)O)C(O)CC32C)C(C)(C)C1=O (stereo not given)
inactive: dose: 37.5 mg/kg/injection, schedule: Q04DX002 (ip), vehicle: saline with Tween-80 101 % of control | dose: 75.0 mg/kg/injection, schedule: Q04DX002 (ip), vehicle: saline with Tween-80 93 % of control | dose: 150.0 mg/kg/injection, schedule: Q04DX002 (ip), vehicle: saline with Tween-80 108 % of control

COC(=O)NC1CC=CCC1I (stereo not given)
inactive: [3] 100 % of control | [4] 102 % of control | [5] 102 % of control

O=C(CCCN1CCC(O)(c2cccc(C(F)(F)F)c2)CC1)c1ccc(F)cc1
inactive: dose: 0.04 mg/kg/injection, schedule: Q03HX024 (ip), vehicle: Klucel (hydroxypropylcellulose) (HPC) 102 % of control | dose: 0.09 mg/kg/injection, schedule: Q03HX024 (ip), vehicle: Klucel (hydroxypropylcellulose) (HPC) 107 % of control | dose: 0.19 mg/kg/injection, schedule: Q03HX024 (ip), vehicle: Klucel (hydroxypropylcellulose) (HPC) 105 % of control | dose: 0.39 mg/kg/injection, schedule: Q03HX024 (ip), vehicle: Klucel (hydroxypropylcellulose) (HPC) 107 % of control | dose: 0.78 mg/kg/injection, schedule: Q03HX004 (ip), vehicle: Klucel (hydroxypropylcellulose) (HPC) 96 % of control | dose: 0.78 mg/kg/injection, schedule: Q03HX024 (ip), vehicle: Klucel (hydroxypropylcellulose) (HPC) 107 % of control | dose: 1.56 mg/kg/injection, schedule: Q01DX009 (ip), vehicle: Klucel (hydroxypropylcellulose) (HPC) 111 % of control | dose: 1.56 mg/kg/injection, schedule: Q03HX004 (ip), vehicle: Klucel (hydroxypropylcellulose) (HPC) 91 % of control | dose: 1.56 mg/kg/injection, schedule: Q03HX024 (ip), vehicle: Klucel (hydroxypropylcellulose) (HPC) 97 % of control | dose: 2.0 mg/kg/injection, schedule: Q01DX009 (ip), vehicle: Klucel (hydroxypropylcellulose) (HPC) 100 % of control | dose: 3.12 mg/kg/injection, schedule: Q01DX009 (ip), vehicle: Klucel (hydroxypropylcellulose) (HPC) 107 % of control and 122 % of control | dose: 3.12 mg/kg/injection, schedule: Q03HX024 (ip), vehicle: Klucel (hydroxypropylcellulose) (HPC) 100 % of control and 86 % of control | dose: 3.12 mg/kg/injection, schedule: Q04DX003 (ip), vehicle: Klucel (hydroxypropylcellulose) (HPC) 91 % of control and 101 % of control | dose: 4.0 mg/kg/injection, schedule: Q01DX009 (ip), vehicle: Klucel (hydroxypropylcellulose) (HPC) 92 % of control | dose: 6.25 mg/kg/injection, schedule: Q01DX001 (ip), vehicle: Klucel (hydroxypropylcellulose) (HPC) 106 % of control | dose: 6.25 mg/kg/injection, schedule: Q01DX009 (ip), vehicle: Klucel (hydroxypropylcellulose) (HPC) 110 % of control | dose: 6.25 mg/kg/injection, schedule: Q04DX003 (ip), vehicle: Klucel (hydroxypropylcellulose) (HPC) 100 % of control and 102 % of control and 108 % of control | dose: 12.5 mg/kg/injection, schedule: Q01DX001 (ip), vehicle: Klucel (hydroxypropylcellulose) (HPC) 106 % of control | [7] 121 % of control | dose: 12.5 mg/kg/injection, schedule: Q04DX003 (ip), vehicle: Klucel (hydroxypropylcellulose) (HPC) 94 % of control and 103 % of control | dose: 18.75 mg/kg/injection, schedule: Q01DX001 (ip), vehicle: Klucel (hydroxypropylcellulose) (HPC) 91 % of control | dose: 25.0 mg/kg/injection, schedule: Q01DX001 (ip), vehicle: Klucel (hydroxypropylcellulose) (HPC) 104 % of control and 119 % of control and 123 % of control | [8] 91 % of control | dose: 25.0 mg/kg/injection, schedule: Q04DX003 (ip), vehicle: Klucel (hydroxypropylcellulose) (HPC) 107 % of control and 117 % of control | dose: 37.5 mg/kg/injection, schedule: Q01DX001 (ip), vehicle: Klucel (hydroxypropylcellulose) (HPC) 103 % of control | dose: 50.0 mg/kg/injection, schedule: Q01DX001 (ip), vehicle: Klucel (hydroxypropylcellulose) (HPC) 123 % of control | [9] 92 % of control | dose: 50.0 mg/kg/injection, schedule: Q04DX003 (ip), vehicle: Klucel (hydroxypropylcellulose) (HPC) 97 % of control and 116 % of control | dose: 75.0 mg/kg/injection, schedule: Q01DX001 (ip), vehicle: Klucel (hydroxypropylcellulose) (HPC) 91 % of control | dose: 100.0 mg/kg/injection, schedule: Q01DX001 (ip), vehicle: Klucel (hydroxypropylcellulose) (HPC) 110 % of control and 115 % of control and 121 % of control | [6] 116 % of control | dose: 150.0 mg/kg/injection, schedule: Q01DX001 (ip), vehicle: Klucel (hydroxypropylcellulose) (HPC) 100 % of control

COc1ccc(/C=C/C(=O)c2ccc3cc(OC)c(OC)cc3c2)cc1OC
inactive: [16] 91 % of control | [18] 89 % of control | [19] 87 % of control

O=C1c2ccccc2C(=O)c2c(Nc3cccc(S(=O)(=O)N(CCO)CCO)c3)ccc(O)c21
inactive: [13] 97 % of control | [15] 97 % of control | [17] 97 % of control

CCCC(=O)c1c(C)cc(C)cc1C
inactive: [10] 97 % of control | [11] 108 % of control | [12] 97 % of control

Cc1cc(O)c2c(c1O)C(=O)C13C(=C2O)C(=O)C2C(O)C1C1C(O)C3C(=O)C3=C(O)c4c(O)cc(C)c(O)c4C(=O)C321 (stereo not given)
inactive: dose: 12.5 mg/kg/injection, schedule: Q04DX003 (ip), vehicle: saline with Tween-80 93 % of control | [2] 106 % of control
